Drawing on patent US20140057895A1, “INDAZOLE- AND PYRROLOPYRIDINE-DERIVATIVE AND PHARMACEUTICAL USE THEREOF” (priority 2011, published 2014), this text covers IC50 for 24 compounds.

Where a name gives a salt, the structure may show the parent alone. Some results are limits rather than exact numbers.

T1 sequence (O70528 whole entry): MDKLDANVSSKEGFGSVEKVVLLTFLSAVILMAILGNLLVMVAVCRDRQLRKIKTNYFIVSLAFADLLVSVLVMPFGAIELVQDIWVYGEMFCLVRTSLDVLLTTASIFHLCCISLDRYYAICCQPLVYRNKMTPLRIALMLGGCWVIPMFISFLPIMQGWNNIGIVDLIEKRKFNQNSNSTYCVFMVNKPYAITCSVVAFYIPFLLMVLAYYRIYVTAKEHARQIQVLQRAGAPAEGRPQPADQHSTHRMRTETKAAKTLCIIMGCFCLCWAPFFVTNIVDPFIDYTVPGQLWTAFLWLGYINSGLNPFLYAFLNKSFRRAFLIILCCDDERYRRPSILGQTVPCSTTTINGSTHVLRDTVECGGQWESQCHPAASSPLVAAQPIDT

The assay concerns the target T1, 5-HT4 receptor (Cavia porcellus, UniProt O70528).
T1 construct: striatum was isolated which was cryopreserved at −80° C. until use; from tissue; host or cells: guinea pig (Slc-Hartley) striatum membranes
Kind of assay: Test Example 3: Guinea pig 5-HT4 receptor binding assay, [3H]-GR113808, striatum membranes (Table 98). The following applies: Guinea pig 5-HT4 receptor binding assay, [3H]-GR113808, striatum membranes; mean value of each group; read-out: IC50. The procedure:
The guinea pig 5-HT4 receptor binding assay and preparations of receptor membrane preparations herein were carried out according to a method of Grossman et al. [see, British J. Pharmacol., (1993) 109, 618].
Slc-Hartley guinea pigs (body weight 300 g to 400 g) were decapitated to remove brain rapidly, and striatum was isolated which was cryopreserved at −80° C. until use. To the obtained tissues were added fifteen fold of Hepes buffer (50 mM, pH 7.4, 4° C.), and the mixture was homogenized by Teflon (trademark) homogenizer and centrifuged at 48,000×g (4° C.) for 15 minutes. To the resulting precipitate was added Hepes buffer (1 ml) to 30 mg by wet weight of tissues, and the mixture was suspended to give receptor membrane preparations.
To an assay tube were added 0.1 nM [^3H]-GR113808 {chemical name: [1-[2-(methylsulfonylamino) ethyl]-4-piperidinyl]methyl 1-methylindole-3-carboxylate}, receptor membrane preparations, and Hepes buffer (50 mM, pH 7.4, 4° C., 1 ml) containing test compounds or 30 μM serotonin; and the mixture was incubated at 37° C. for 30 minutes. On quenching the reaction, the mixture was rapidly filtered on whatman GF/B filter, which was presoaked in 0.1% polyethyleneimine for 1 hour, by using Brandel cell Harvester, and washed with ice-cooled 50 mM Tris-HCl (pH 7.7, 4 ml) three times. To the filter after filtration was added a liquid scintillator (Ecoscint), and then a radioactivity was determined by a liquid scintillation counter.
50% Inhibition concentrations (IC50) were determined from inhibition rates of test compounds to specific bindings which were obtained by subtracting nonspecific bindings from total binding amounts of [^3H]-GR113808. […]
What is called IC50 is the concentration at which inhibition is half-maximal. Turning to “5-methyl-3-(propan-2-yl)-1-{5-[1-(tetrahydro-2H-pyran-4-yl)piperidin-5-yl]-1,2,4-oxadiazol-3-yl}-1H-indazole [Example 428]”, the IC50 is 248 nM. The same measure for `CC(C)c1nn(-c2noc(C3CCN(CCCOc4ccccc4)CC3)n2)c2c(F)cccc12` [Example 395, 7-fluoro-1-{5-[1-(3-phenoxypropyl)piperidin-4-yl]-1,2,4-oxadiazol-3-yl}-3-(propan-2-yl)-1H-indazole]: 26.9 nM; for `CC(C)c1nn(-c2noc(C3CCN(CCC(=O)c4ccccc4)CC3)n2)c2c(F)cccc12` [Example 396, 3-(4-{3-[7-fluoro-3-(propan-2-yl)-1H-indazol-1-yl]-1,2,4-oxadiazol-5-yl}piperidin-1-yl)-1-phenylpropan-1-one]: less than 20 nM; for `COC(=O)CCCN1CCC(c2nc(-n3nc(C(C)C)c4cccc(F)c43)no2)CC1` [Example 397, methyl 4-(4-{3-[7-fluoro-3-(propan-2-yl)-1H-indazol-1-yl]-1,2,4-oxadiazol-5-yl}piperidin-1-yl)butanoate]: less than 20 nM. The same measure for `CC(C)c1nn(-c2noc(C3CCN(CCC(=O)Nc4ccccc4)CC3)n2)c2c(F)cccc12` [Example 398, 3-(4-{3-[7-fluoro-3-(propan-2-yl)-1H-indazol-1-yl]-1,2,4-oxadiazol-5-yl}piperidin-1-yl)-N-phenylpropanamide]: less than 20 nM. The same measure for `CC(=O)N1CCC(N2CCC(c3nc(-n4nc(C(C)(C)O)c5cccc(F)c54)no3)CC2)CC1` [Example 403, 1-(4-{3-[7-fluoro-3-(2-hydroxypropan-2-yl)-1H-indazol-1-yl]-1,2,4-oxadiazol-5-yl}-1,4′-bipiperidin-1′-yl)ethanone]: 36.1 nM; for `COc1ccc2c(C(C)C)nn(-c3noc(C4CCN(C5CCN(C(C)=O)CC5)CC4)n3)c2c1F` [Example 404, 1-(4-{3-[7-fluoro-6-methoxy-3-(propan-2-yl)-1H-indazol-1-yl]-1,2,4-oxadiazol-5-yl}-1,4′-bipiperidin-1′-yl)ethanone]: 100 nM. Take `CC(=O)N1CCC(N2CCC(c3nc(-n4nc(C(F)(F)F)c5cccc(F)c54)no3)CC2)CC1` [Example 406, 1-(4-{3-[7-fluoro-3-(trifluoromethyl)-1H-indazol-1-yl]-1,2,4-oxadiazol-5-yl}-1,4′-bipiperidin-1′-yl)ethanone]: the IC50 came to 68.7 nM. The same measure for `CC(=O)N1CCC(N2CCC(c3nc(-n4nc(C(C)C)c5c(Cl)cccc54)no3)CC2)CC1` [Example 407, 1-(4-{3-[4-chloro-3-(propan-2-yl)-1H-indazol-1-yl]-1,2,4-oxadiazol-5-yl}-1,4′-bipiperidin-1′-yl)ethanone]: 101 nM. On to `CC(=O)N1CCC(N2CCC(c3nc(-n4nc(C(C)C)c5c(C)cccc54)no3)CC2)CC1` [Example 408, 1-(4-{3-[4-methyl-3-(propan-2-yl)-1H-indazol-1-yl]-1,2,4-oxadiazol-5-yl}-1,4′-bipiperidin-1′-yl)ethanone], for which the IC50 was found to be 29.5 nM.

Regarding `CC(=O)N1CCC(N2CCC(c3nc(-n4nc(C(C)C)c5cc(Cl)ccc54)no3)CC2)CC1` [Example 409, 1-(4-{3-[5-chloro-3-(propan-2-yl)-1H-indazol-1-yl]-1,2,4-oxadiazol-5-yl}-1,4′-bipiperidin-1′-yl)ethanone], the IC50 amounted to 383 nM. As to `CC(=O)N1CCC(N2CCC(c3nc(-n4nc(C(C)C)c5cc(C)ccc54)no3)CC2)CC1` [Example 410, 1-(4-{3-[5-methyl-3-(propan-2-yl)-1H-indazol-1-yl]-1,2,4-oxadiazol-5-yl}-1,4′-bipiperidin-1′-yl)ethanone], the IC50 stood at 323 nM. For `CC(=O)N1CCC(N2CCC(c3nc(-n4nc(C(C)C)c5ccc(Cl)cc54)no3)CC2)CC1` [Example 412, 1-(4-{3-[6-chloro-3-(propan-2-yl)-1H-indazol-1-yl]-1,2,4-oxadiazol-5-yl}-1,4′-bipiperidin-1′-yl)ethanone], the IC50 was 140 nM.

On to `CC(=O)N1CCC(N2CCC(c3nc(-n4nc(C(C)C)c5cccc(C)c54)no3)CC2)CC1` [Example 413, 1-(4-{3-[7-methyl-3-(propan-2-yl)-1H-indazol-1-yl]-1,2,4-oxadiazol-5-yl}-1,4′-bipiperidin-1′-yl)ethanone], for which the concentration for half-maximal inhibition (IC50) was less than 20 nM. As to `COc1cccc2c(C(C)C)nn(-c3noc(C4CCN(C5CCN(C(C)=O)CC5)CC4)n3)c12` [Example 414, 1-(4-{3-[7-methoxy-3-(propan-2-yl)-1H-indazol-1-yl]-1,2,4-oxadiazol-5-yl}-1,4′-bipiperidin-1′-yl)ethanone], the IC50 came to 86.9 nM. As for `CC(=O)N1CCC(N2CCC(c3nc(-n4nc(C(C)C)c5cccc(F)c54)no3)C2)CC1` (stereo not drawn) [Example 415, 1-[4-(3-{3-[7-fluoro-3-(propan-2-yl)-1H-indazol-1-yl]-1,2,4-oxadiazol-5-yl}pyrrolidin-1-yl)piperidin-1-yl]ethanone], the IC50 was less than 20 nM. The same measure for `CC(=O)N1CCC(N2CCC(Cc3nc(-n4nc(C(C)C)c5cccc(F)c54)no3)CC2)CC1` [Example 417, 1-[4-({3-[7-fluoro-3-(propan-2-yl)-1H-indazol-1-yl]-1,2,4-oxadiazol-5-yl}methyl)-1,4′-bipiperidin-1′-yl]ethanone]: 36 nM; for `CC(C)c1nn(-c2noc(C3CCN(C4CCC4)CC3)n2)c2cccc(Cl)c12` [Example 421, 4-chloro-1-[5-(1-cyclobutylpiperidin-4-yl)-1,2,4-oxadiazol-3-yl]-3-(propan-2-yl)-1H-indazole]: 129 nM; for `CC(C)c1nn(-c2noc(C3CCN(C4CCOCC4)CC3)n2)c2cccc(Cl)c12` [Example 422, 4-chloro-3-(propan-2-yl)-1-{5-[1-(tetrahydro-2H-pyran-4-yl)piperidin-4-yl]-1,2,4-oxadiazol-3-yl}-1H-indazole]: 55 nM. The same measure for `Cc1ccc2c(c1)c(C(C)C)nn2-c1noc(C2CCN(C3CCC3)CC2)n1` [Example 427, 1-[5-(1-cyclobutylpiperidin-4-yl)-1,2,4-oxadiazol-3-yl]-5-methyl-3-(propan-2-yl}-1H-indazole]: 339 nM. The same measure for `CC(C)c1nn(-c2noc(C3CCN(C4CCC4)CC3)n2)c2cc(Cl)ccc12` [Example 431, 6-chloro-1-[5-(1-cyclobutylpiperidin-4-yl)-1,2,4-oxadiazol-3-yl]-3-(propan-2-yl)-1H-indazole]: 130 nM. As to `Cc1ccc2c(C(C)C)nn(-c3noc(C4CCN(C5CCC5)CC4)n3)c2c1` [Example 433, 1-[5-(1-cyclobutylpiperidin-4-yl)-1,2,4-oxadiazol-3-yl]-6-methyl-3-(propan-2-yl)-1H-indazole], the IC50 was 65 nM. The same measure for `CCc1nn(-c2noc(C3CCN(C4CCC4)CC3)n2)c2cc(C)ccc12` [Example 434, 1-[5-(1-cyclobutylpiperidin-4-yl)-1,2,4-oxadiazol-3-yl]-3-ethyl-6-methyl-1H-indazole trifluoroacetate]: 20.8 nM; for `Cc1ccc2c(C(C)C)nn(-c3noc(C4CCN(CC5CCOCC5)CC4)n3)c2c1` [Example 436, 6-methyl-3-(propan-2-yl)-1-{5-[1-(tetrahydro-2H-pyran-4-ylmethyl)piperidin-4-yl]-1,2,4-oxadiazol-3-yl}-1H-indazole trifluoroacetate]: 179 nM.
